The values below come from PMC4657044, “Live detection and purification of cells based on the expression of a histone chaperone, HIRA, using a binding peptide” (Scientific Reports, 2015).

No end group written: not given here.

Data set [1] concerns HSC-4 cells. Put plainly: FACS of fixed HSC-4 cells with and without saponin permeabilization. It is filed as cell-based, human. Conditions: fixed (4% PFA) HSC-4 cells, 10 μM FITC-labelled peptide, with or without 0.3% saponin, buffer with 1% FBS, 1 h at room temperature; FACS fluorescence. How it is done: (§1) TM2-FITC was used for FACS analyses with and without permeabilization of fixed HSC-4 cells using saponin. […] To check whether it can be used for live sorting, live HSC-4 cells were stained with the peptide and analyzed by FACS. […] The live uptake of TM2-FITC by HSC-4 monolayer cells was visualized under microscope immediately after washing off the staining solution (Fig. 2c).
(§2) FACS analysis was performed as reported previously. Monolayer cells were trypsinized and fixed using 4% PFA, and peptide labeled with FITC (10 μM) was added to the cells in presence or absence of 0.3% saponin in a buffer containing 1%FBS, and incubated for one hour at room temperature. For live sorting, the cells were resuspended in 75 μl of PBS containing the peptide for one hour. Cells were diluted with 200 μl of PBS and sorted immediately using FACS Aria II.

Data set [2] deals with T1, HIRA (Homo sapiens, UniProt P54198).
T1 construct: We took oral cancer cell line HSC-4, which expresses HIRA; endogenous in cells; host or cells: HSC-4
Put plainly: Immunofluorescence of fixed and permeabilized HSC-4 cells. It is filed as cell-based. The note with it: fixed (4% PFA) and permeabilized (0.3% Triton X-100) HSC-4 cells; overnight at 4 °C; confocal microscopy. From the text:
(§3) One of the problems that could emerge in a peptide-based detection is its specificity. To confirm whether the peptide detects correct molecule, we performed a western blot using biotin-tagged peptide, a novel approach for showing specificity. TM2 was tagged with biotin and purified by size exclusion chromatography, and was used instead of primary antibody in western blot. The blot was developed with streptavidin-HRP and ECL to get a single band at 110 kDa, as observed in antibody-based detection (Fig. 1b). The peptide was tagged to FITC and was used for immunofluorescence in comparison with HIRA antibody. The staining pattern in fixed and permeabilized oral cancer cell line HSC-4 was similar in both TM2-FITC and HIRA antibody (Fig. 1c), confirming the specificity. To rule out nonspecific binding of peptide we selected HIRA-knock out cells. So, we analyzed the specificity using mouse W9.5 (wild type) and Hira^−/− W9.5 ES cells, reported earlier. Since we designed peptides using human sequence, and the cell line is of mouse origin we compared the sequence similarity of binding region of both HIRA and H2B across the two species. […] So we anticipated that the peptide will recognize mouse HIRA as well.
(§4) Monolayer cells seeded in micro slide chamber were fixed using 4% paraformadehyde (PFA), permeabilized with 0.3% Triton X-100/PBS (PBST) and blocked with 2% serum as described previously. […]

Data set [3] deals with HSC-4 cells and Hira-/- ES cells. In words: FACS of live HSC-4 / Hira-/- ES cell mixture dual stained with TM2-FITC and CD44-PE. It is filed as cell-based. The text has this:
(§5) Since TM2-FITC binds to its target in live cells without any permeabilizing agents, we sought the possibility of its use in live sorting. We tried to separate HIRA expressing cells from HIRA deficient cells using FACS. We took oral cancer cell line HSC-4, which expresses HIRA, and mixed with Hira^−/− ES cells in 2.5:1 ratio. […] These cells were sorted out as positive and negative populations with gates P2 and P3 and were allowed to grow for 5 days in 8-well chamber slide. The DIC images confirm that the positive population was HSC-4 keratinocytes and the negative population was ES cells (Fig. 3b). Again wild type ES cells and Hira^−/− ES cells were mixed in 1:1 ratio and sorted as mentioned before. […] These cells grown in slide chambers were stained with antibodies for HIRA and an epithelial marker, CD44. […] The cross contamination in P3 population for the mixture of null and wild type ES cells was <4%. Since 5 days of growth in ES culture medium might give a selection advantage for ES cells over the contaminating keratinocytes, another FACS was performed to check the false positivity and negativity. HSC-4 cells and Hira^−/− ES cells were stained alone or in mixture with the TM2-FITC and CD44-PE and analyzed by FACS. […] The false positivity that we observed in P4 population could be overcome by a stringent gating as we have done in Fig 3. To further ascertain the false positivity in sorting based on TM2-FITC, the mixture of two cell types were separated for HIRA a positivity as shown in Fig. 4d. The positive population was analyzed for possible cross contamination for ES cells as shown by CD44 negativity. […] Comparing the cost of peptide synthesis with antibody development, this method is more cost effective than conventional antibodies. In future, the strategy can be improved by modifications that increases the retention time of the peptide, to ensure more purity. We argue that this approach will have immense use in cell biology, developmental biology and clinical applications.
Figure 4 Specificity of TM2-FITC live sorting. (a) The FACS profiles of live HSC-4 cells and ES cells alone or in a mixture stained with TM2-FITC and CD44-PE. The two populations in P2 and P4 gate were selected for CD44 positivity. (b) Sorted cells were further analyzed for HIRA positivity (c) The dual stained cells were separated for both FITC and PE. The positivity of different populations is marked. (d) The mixture of two cell types were separated for HIRA positivity and the P2 population was further analyzed for CD44 positivity.
(§6) FACS analysis was performed as reported previously. […]

Data set [4] deals with wild type and Hira-/- ES cells. In words: Live uptake by ES cells under the confocal microscope. Type of data set: cell-based, mouse. Conditions: live wild type and Hira-/- ES cells grown in confocal dishes, TM2-FITC; fluorescence microscopy.
Source text: as §1
(a) The FACS profile of fixed HSC-4 cells stained with TM2-FITC. (b) Live cells were stained with the TM2-FITC as described under methods and analyzed in FACS Aria II. (c) HSC-4 cells were grown in confocal dishes and incubated with TM2-FITC diluted in PBS for 1 h. Prior to imaging the cells were briefly washed and imaged (d) ES cells were grown in confocal dishes and stained using TM2-FITC. Hoechst 33342 dye was used to visualize the nucleus. The scale bar represents 10 μm.

Data set [5] concerns wild type ES cells and Hira-/- ES cells. Put plainly: Live sorting of a mixture of wild type and Hira-/- ES cells. It is filed as cell-based, mouse.
Source text: as §5, §6

In data set [6] the target is T2, HIRA (Mus musculus, UniProt Q61666).
T2 construct: endogenous in cells; host or cells: mouse W9.5 ES cells (wild type)
In words: Immunofluorescence of fixed and permeabilized wild type and Hira-/- W9.5 ES cells. Conditions: fixed and permeabilized mouse W9.5 wild type versus Hira-/- ES cells; confocal microscopy. It is filed as cell-based.
Source text: as §3, §4

Data set [7] concerns HSC-4 cells. Put plainly: FACS of live HSC-4 cells stained with the peptide. Type of data set: cell-based, human. How it is done: as §1, §2
The test system of data set [8] is HSC-4 cells and Hira-/- ES cells. In words: Live sorting of a mixture of HSC-4 cells and Hira-/- ES cells. It is filed as cell-based. The text has this:
Since TM2-FITC binds to its target in live cells without any permeabilizing agents, we sought the possibility of its use in live sorting. We tried to separate HIRA expressing cells from HIRA deficient cells using FACS. We took oral cancer cell line HSC-4, which expresses HIRA, and mixed with Hira^−/− ES cells in 2.5:1 ratio. […] These cells were sorted out as positive and negative populations with gates P2 and P3 and were allowed to grow for 5 days in 8-well chamber slide. The DIC images confirm that the positive population was HSC-4 keratinocytes and the negative population was ES cells (Fig. 3b). Again wild type ES cells and Hira^−/− ES cells were mixed in 1:1 ratio and sorted as mentioned before. […] These cells grown in slide chambers were stained with antibodies for HIRA and an epithelial marker, CD44. […] The cross contamination in P3 population for the mixture of null and wild type ES cells was <4%. Since 5 days of growth in ES culture medium might give a selection advantage for ES cells over the contaminating keratinocytes, another FACS was performed to check the false positivity and negativity. HSC-4 cells and Hira^−/− ES cells were stained alone or in mixture with the TM2-FITC and CD44-PE and analyzed by FACS. […] The positive population was analyzed for possible cross contamination for ES cells as shown by CD44 negativity. […]

Setting [9] is: mixture of live HSC-4 and Hira-/- ES cells, TM2-FITC and CD44-PE, Fig. 4b.

T1 sequence (P54198 whole entry): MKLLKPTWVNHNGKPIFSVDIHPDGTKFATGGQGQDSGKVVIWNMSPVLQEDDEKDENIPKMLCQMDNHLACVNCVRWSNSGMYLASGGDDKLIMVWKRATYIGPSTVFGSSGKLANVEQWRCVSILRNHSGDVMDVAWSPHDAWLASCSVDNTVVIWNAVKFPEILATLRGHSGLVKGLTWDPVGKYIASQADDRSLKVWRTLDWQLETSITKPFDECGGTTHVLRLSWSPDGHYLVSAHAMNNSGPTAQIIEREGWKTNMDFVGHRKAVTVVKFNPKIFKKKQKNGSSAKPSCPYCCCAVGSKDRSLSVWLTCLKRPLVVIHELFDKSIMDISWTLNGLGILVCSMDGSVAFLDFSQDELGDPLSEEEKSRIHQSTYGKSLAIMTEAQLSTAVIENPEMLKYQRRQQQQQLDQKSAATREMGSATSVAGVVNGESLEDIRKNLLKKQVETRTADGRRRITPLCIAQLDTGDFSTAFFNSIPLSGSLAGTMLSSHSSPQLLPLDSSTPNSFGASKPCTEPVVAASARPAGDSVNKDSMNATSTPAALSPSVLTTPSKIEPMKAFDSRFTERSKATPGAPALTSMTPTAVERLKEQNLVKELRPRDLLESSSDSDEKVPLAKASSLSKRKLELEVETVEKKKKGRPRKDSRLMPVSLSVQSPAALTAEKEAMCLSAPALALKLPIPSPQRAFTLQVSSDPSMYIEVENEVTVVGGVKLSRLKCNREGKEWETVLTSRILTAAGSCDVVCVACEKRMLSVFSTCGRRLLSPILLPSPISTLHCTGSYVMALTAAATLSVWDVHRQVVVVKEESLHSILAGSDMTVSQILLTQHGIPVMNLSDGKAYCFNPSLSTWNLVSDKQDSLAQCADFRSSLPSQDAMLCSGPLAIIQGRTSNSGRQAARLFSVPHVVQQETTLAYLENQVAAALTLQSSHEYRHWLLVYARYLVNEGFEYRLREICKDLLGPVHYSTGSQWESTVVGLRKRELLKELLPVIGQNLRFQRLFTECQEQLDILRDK
T2 sequence (Q61666 whole entry): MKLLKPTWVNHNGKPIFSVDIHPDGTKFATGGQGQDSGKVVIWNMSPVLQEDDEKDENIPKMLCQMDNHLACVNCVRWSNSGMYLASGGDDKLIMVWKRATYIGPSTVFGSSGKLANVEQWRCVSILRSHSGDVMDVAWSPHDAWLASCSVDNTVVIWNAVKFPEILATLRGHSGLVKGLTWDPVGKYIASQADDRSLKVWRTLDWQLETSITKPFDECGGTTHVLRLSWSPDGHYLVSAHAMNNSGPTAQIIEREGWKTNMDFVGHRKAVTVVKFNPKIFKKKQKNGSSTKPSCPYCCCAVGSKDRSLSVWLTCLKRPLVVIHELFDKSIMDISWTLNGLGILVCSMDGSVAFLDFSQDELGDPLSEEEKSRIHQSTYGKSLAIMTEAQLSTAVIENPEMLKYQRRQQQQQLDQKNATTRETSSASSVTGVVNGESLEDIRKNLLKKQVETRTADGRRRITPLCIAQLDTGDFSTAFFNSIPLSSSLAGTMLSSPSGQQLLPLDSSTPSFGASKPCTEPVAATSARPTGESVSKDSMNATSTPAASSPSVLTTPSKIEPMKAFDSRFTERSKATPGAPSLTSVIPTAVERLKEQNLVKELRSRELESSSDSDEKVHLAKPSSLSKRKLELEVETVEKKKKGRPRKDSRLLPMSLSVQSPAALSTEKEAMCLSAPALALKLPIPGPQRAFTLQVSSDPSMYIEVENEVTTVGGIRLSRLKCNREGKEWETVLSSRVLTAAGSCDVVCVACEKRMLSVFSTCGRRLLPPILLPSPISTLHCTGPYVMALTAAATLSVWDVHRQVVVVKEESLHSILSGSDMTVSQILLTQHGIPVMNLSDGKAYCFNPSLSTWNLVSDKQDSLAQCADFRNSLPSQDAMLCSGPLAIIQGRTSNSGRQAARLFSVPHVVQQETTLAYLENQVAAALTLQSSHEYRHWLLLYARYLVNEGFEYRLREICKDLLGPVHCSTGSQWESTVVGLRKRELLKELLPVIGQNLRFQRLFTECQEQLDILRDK

For the substance PKKGSKKAVTKAQKKDGA-NH2 [TM2], the “cell permeability / internalization” value in the data set with HSC-4 cells [1] was “cell permeable”.

Turning to “TM2-FITC: TM2 peptide tagged to FITC, used for immunofluorescence, FACS and live sorting (PKKGSKKAVTKAQKKDGA-NH2; also: FITC, site not given here)”, the “staining pattern compared with HIRA antibody” value with HIRA [2] is reported as “similar”. The “false positive ratio in dual staining” value in data set [3] (dual stained cells separated for both FITC and PE, Fig. 4c) is 0.6%. Further, in data set [3] (setting [9]), the “HIRA positivity of CD44+ population (P2)” value is recorded as 82% and the “false HIRA positivity of Hira-/- ES cells (CD44 negative, P4)” value is listed as 2.7%. The “false positive ratio (CD44 negative cells in the HIRA positive population)” value in data set [3] (mixture separated for HIRA positivity, P2 population analysed for CD44, Fig. 4d) turned out to be 0.9%. Also, the “cell permeability / internalization” value in the data set with HSC-4 cells [1] is reported as “internalized without permeabilization”. In addition, the “live uptake pattern in ES cells” value in data set [4] was “limited to the wild type ES cells”. Moreover, the “viability of sorted ES cells” value in data set [5] (cells sorted live with TM2-FITC, grown 5 days in 8-well chamber slide, DIC images) was “viable and formed colonies in 5 days”. In addition, the “observed ratio of positivity (gate P2)” value in data set [5] (live wild type ES and Hira-/- ES cells mixed 1:1 (1x10^5 / 1x10^5), expected 50%, FACS) is listed as 49.6%. For the same substance, the “cross contamination in sorted P3 (negative) population” value in data set [5] (mixture of null and wild type ES cells, sorted cells grown 5 days, stained with HIRA antibody) is listed as under 4%. In addition, the “staining of HIRA-/- ES cells (specificity)” value in the data set with HIRA [6] is recorded as “absence of staining”. In addition, the “signal after washing with peptide free solution” value with HSC-4 cells [7] (live HSC-4 cells stained with the peptide, FACS) is reported as “loss of the signal”. Further, the “cells positive for HIRA” value with HSC-4 cells [7] (live HSC-4 cells, no permeabilization, peptide in 75 μl PBS for 1 h, diluted with 200 μl PBS, FACS Aria II) amounted to 85%. The “HIRA positive cells observed (gate P2)” value in data set [8] (live HSC-4 and Hira-/- ES cells mixed 2.5:1 (2.5x10^5 / 1x10^5), expected 71.4%, FACS) came to 65.7%. The “contamination of sorted P3 (negative) population by CD44+HIRA+ cells” value in data set [8] (sorted cells grown 5 days in 8-well chamber slide, stained with HIRA and CD44 antibodies) is under 1%.
